Tests used:
Assay type in all cases: functional
CAKI-1 = assay: Cytotoxicity against Homo sapiens (human) Caki1 cells after 48 hr by SRB assay; conditions: CAKI-1, 48 h
SF-539 = assay: Cytotoxicity against Homo sapiens (human) SF539 cells after 48 hr by SRB assay; conditions: SF-539, 48 h
HOP-92 = assay: Cytotoxicity against Homo sapiens (human) HOP92 cells assessed as cell growth at 10 uM after 48 hr by SRB assay relative to control; conditions: HOP-92, 48 h, read-out: Activity
UACC-257 = assay: Cytotoxicity against Homo sapiens (human) UACC257 cells assessed as cell growth at 10 uM after 48 hr by SRB assay relative to control; conditions: UACC-257, 48 h, read-out: Activity
UACC-62 = assay: Cytotoxicity against Homo sapiens (human) UACC62 cells after 48 hr by SRB assay; conditions: UACC-62, 48 h
TK-10 = assay: Cytotoxicity against Homo sapiens (human) TK10 cells after 48 hr by SRB assay; conditions: TK-10, 48 h
SNB-75 = assay: Cytotoxicity against Homo sapiens (human) SNB75 cells assessed as cell growth at 10 uM after 48 hr by SRB assay relative to control; conditions: SNB-75, 48 h, read-out: Activity
[1] = read-out: pLC50 (the source's name) (converted)

| Compound | GI50 (CAKI-1) [nM] | CC50 (CAKI-1; [1]) [µM] | TGI (CAKI-1; read-out: pTGI) [µM] | GI50 (SF-539) [nM] | CC50 (SF-539; [1]) [µM] | TGI (SF-539; read-out: pTGI) [µM] | growth at 10 µM (HOP-92) [%] | growth at 10 µM (UACC-257) [%] | GI50 (UACC-62) [nM] | CC50 (UACC-62; [1]) [µM] | TGI (UACC-62; read-out: pTGI (converted)) [µM] | GI50 (TK-10) [nM] | CC50 (TK-10; [1]) [µM] | TGI (TK-10; read-out: pTGI (converted)) [µM] | growth at 10 µM (SNB-75) [%] |
| --- | --- | --- | --- | --- | --- | --- | --- | --- | --- | --- | --- | --- | --- | --- | --- |
| COc1ccccc1CNC(=O)CSc1nc2ccccc2c2nc(=O)c(-c3ccccc3)nn12 | 1910 | > 100 | > 100 | 1820 | > 100 | > 100 | 26.2 |  |  |  |  |  |  |  |  |
| COc1ccc(-c2nn3c(SCC(=O)Nc4ccccc4Cl)nc4ccccc4c3nc2=O)cc1 |  |  |  |  |  |  |  | -17.1 | 2750 | > 100 | 67.6 | 2190 | 33.9 | 7.24 | 55.6 |
